Assay results from patent publication US8901177B2, “Method of treating bladder disorders” (Targacept, Inc., priority 2012, dated 2014).
Entries after “also recorded” stand apart in the source; their conditions may differ.

What was measured:
[1] = target: NMDA receptor NR1a-NR2B (Homo sapiens, UniProt Q05586+Q13224); test: Glutamate-evoked currents at NR1a-NR2B receptors in Xenopus oocytes (two electrode voltage-clamp); type: cell-based
Protocol: All experiments were carried out at receptors expressed in Xenopus oocytes using the method of cDNA expression. Currents evoked by glutamate were recorded using the standard two electrode voltage-clamp configuration (TVEC). Xenopus oocytes were prepared and injected using standard procedures.
Briefly, ovaries are harvested from Xenopus Laevis females that have been deeply anesthetized and pithed following the animal rights rule from the Geneva canton. […] Data were filtered at 10 Hz, captured at 100 Hz and analyzed using HiQ proprietary data acquisition and analysis software running under Matlab (Mathworks Inc.).
Oocytes expressing the NR1a-NR2A or NR1a-NR2B receptors were challenged at periodic intervals with a glutamate test pulse. Test drug was then applied during a sustained period and its effects monitored by measuring the amplitude and time course of the glutamate evoked currents. […]
To further evaluate effects of TC-5214, experiments using sustained exposure to this compound followed by a recovery period were carried out at NR1a-NR2A and NR1a-NR2B receptors. Measurements were made with (nM) 0, 3, 10, 30, 100, 300, TC-5214 and recovery monitored during 10 minutes. […] Effects were measured in at least three cells. […]

[2] = type: in vivo, human
Protocol: More recently, dexmecamylamine was evaluated as adjunctive therapy in the treatment of major depressive disorder (MDD) in a large international Phase 3 depression program. […] More than 2400 subjects have received dexmecamylamine in double-blind or open-label studies.
No safety studies using dexmecamylamine have been performed in OAB. Phase 2 and Phase 3 clinical studies using dexmecamylamine in Major Depressive Disorder (MDD) have been conducted and completed. […] Briefly, in the fixed dose Phase 3 studies in MDD, at doses of 2 mg BID (the maximum doses to be studied in the OAB study), the most frequent treatment emergent adverse events that were reported more than 2% more commonly in the dexmecamylamine group compared to placebo group were: constipation (15.2% dexmecamylamine vs. 3.8% placebo); and dry mouth (7.0% dexmecamylamine vs. 1.3% placebo).

[3] = target: α4β2 (Homo sapiens, UniProt P17787+P43681); details: 1 μM; cited from earlier work
α4β2, sequence (P43681 29-627 limits assumed): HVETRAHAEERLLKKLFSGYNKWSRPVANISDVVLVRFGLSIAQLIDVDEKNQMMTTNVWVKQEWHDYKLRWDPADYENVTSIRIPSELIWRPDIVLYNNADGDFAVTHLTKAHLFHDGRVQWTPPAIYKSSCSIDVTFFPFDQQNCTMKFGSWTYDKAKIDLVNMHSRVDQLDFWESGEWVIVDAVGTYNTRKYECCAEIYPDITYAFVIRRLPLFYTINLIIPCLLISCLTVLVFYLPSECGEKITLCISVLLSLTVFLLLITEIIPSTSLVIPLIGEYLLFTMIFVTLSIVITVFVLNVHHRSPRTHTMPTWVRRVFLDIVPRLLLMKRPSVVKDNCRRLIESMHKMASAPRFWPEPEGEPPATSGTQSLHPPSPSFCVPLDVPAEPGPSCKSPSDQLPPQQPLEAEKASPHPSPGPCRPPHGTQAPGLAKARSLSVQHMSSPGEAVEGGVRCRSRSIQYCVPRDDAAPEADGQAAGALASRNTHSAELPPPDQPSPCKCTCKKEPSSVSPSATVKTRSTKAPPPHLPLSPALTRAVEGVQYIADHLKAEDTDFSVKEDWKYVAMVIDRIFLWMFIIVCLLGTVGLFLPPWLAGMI
α4β2, sequence (P17787 26-502): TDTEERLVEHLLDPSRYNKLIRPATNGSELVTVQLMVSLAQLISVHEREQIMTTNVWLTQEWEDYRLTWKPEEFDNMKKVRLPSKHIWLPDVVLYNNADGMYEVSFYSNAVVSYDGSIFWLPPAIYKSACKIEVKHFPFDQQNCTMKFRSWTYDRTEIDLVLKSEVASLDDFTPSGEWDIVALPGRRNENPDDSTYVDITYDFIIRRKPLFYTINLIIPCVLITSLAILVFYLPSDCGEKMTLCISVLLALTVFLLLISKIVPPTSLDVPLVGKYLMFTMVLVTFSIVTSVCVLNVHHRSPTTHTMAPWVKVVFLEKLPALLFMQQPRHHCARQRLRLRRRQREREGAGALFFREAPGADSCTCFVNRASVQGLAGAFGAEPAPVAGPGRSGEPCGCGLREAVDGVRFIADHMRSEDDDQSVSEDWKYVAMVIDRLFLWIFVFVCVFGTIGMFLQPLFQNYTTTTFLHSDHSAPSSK

[4] = tested on: bladder function in conscious Sprague Dawley rats; test: Oral administration (gavage) in awake, conscious rats, cystometry; details: 1 mg/kg oral gavage; for bladder contraction amplitude: compared to baseline/control; for change in spontaneous activity (SA), a surrogate for urge: compared to control; for change in bladder capacity / change in micturition interval / ICI / change in micturition volume: relative to baseline/control
Protocol: A further study was conducted to evaluate the effects of TC-5214 on bladder function in awake, conscious Sprague Dawley rats.
Nine female Sprague Dawley rats received intravesical saline at a rate of 10 mL/hr. Following a 60-minute baseline evaluation, rats were administered dexmecamylamine at a dose of 1 mg/kg by oral gavage, a dose previously determined to be the “No Effect Dose” in safety pharmacology studies. Two hours following the oral administration of dexmecamylamine, cystometric parameters were collected over a period of one hour.

NMDA receptor NR1a-NR2B, sequence (Q13224 27-1484, other chains not shown): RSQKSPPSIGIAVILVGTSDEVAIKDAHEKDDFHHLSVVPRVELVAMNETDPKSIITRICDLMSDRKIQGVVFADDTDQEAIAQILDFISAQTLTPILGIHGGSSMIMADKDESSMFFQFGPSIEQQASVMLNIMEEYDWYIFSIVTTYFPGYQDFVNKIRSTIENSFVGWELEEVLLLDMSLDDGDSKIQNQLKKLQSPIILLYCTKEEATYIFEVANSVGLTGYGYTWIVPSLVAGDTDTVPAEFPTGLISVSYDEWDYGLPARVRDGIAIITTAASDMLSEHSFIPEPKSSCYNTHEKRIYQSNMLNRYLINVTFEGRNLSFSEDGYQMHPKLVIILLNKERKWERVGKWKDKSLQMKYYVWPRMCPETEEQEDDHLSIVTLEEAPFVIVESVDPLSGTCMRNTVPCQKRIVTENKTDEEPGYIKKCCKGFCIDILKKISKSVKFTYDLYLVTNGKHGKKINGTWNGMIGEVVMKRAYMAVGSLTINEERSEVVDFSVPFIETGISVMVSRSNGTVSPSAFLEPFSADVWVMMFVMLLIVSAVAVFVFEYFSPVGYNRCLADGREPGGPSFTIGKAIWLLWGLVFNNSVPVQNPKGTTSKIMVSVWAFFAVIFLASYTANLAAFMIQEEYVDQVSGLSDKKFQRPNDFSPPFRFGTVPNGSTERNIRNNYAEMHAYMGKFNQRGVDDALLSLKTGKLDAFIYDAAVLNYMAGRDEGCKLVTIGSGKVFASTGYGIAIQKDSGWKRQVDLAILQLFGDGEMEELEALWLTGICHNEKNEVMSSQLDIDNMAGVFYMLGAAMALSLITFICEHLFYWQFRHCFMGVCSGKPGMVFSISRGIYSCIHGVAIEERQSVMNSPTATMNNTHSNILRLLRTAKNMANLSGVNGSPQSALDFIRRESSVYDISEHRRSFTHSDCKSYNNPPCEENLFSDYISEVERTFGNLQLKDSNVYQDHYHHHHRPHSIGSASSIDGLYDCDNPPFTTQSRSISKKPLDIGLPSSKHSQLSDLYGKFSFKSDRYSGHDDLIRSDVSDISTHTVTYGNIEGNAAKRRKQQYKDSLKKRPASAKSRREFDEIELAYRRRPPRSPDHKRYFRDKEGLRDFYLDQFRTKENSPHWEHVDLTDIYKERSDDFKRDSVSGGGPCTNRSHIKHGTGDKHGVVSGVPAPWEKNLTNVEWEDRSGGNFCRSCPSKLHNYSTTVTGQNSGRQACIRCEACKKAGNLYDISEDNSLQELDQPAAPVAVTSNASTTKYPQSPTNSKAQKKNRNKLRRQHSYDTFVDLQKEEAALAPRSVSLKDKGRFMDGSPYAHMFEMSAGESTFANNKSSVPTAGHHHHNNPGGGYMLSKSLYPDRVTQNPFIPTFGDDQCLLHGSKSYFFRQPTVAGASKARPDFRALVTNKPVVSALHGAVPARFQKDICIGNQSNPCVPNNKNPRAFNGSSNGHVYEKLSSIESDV

CNC1(C)[C@H]2CCC(C2)C1(C)C (stereo partly drawn) [TC-5214, (S)—N,2,3,3-tetramethylnorbornan-2-amine]
extent of inhibition over concentration range (FIG. 22) ([1]; 3, 10, 30, 100, 300 nM, Glutamate 10 μM-Glycine 1 μM): partial inhibition
concentration at which it potently inhibits ([1]; FIG. 23 legend): 10 to 30 nM
efficacy in the treatment of depression ([2]; adjunctive therapy, Phase 3 program): failed to demonstrate efficacy
vital signs, blood or urine laboratory measurements, ECG conduction intervals, suicidality ([2]; human, in vivo): no noteworthy differences
modulation of α4β2 function [3]: positive modulation
bladder contraction amplitude [4]: placebo-like
bladder contraction amplitude ([4]; listed as dexmecamylamine): without producing detrimental changes; also recorded: insignificant effect
change in spontaneous activity (SA), a surrogate for urge [4]: statistically significant differential
change in spontaneous activity (SA), a surrogate for urge ([4]; listed as dexmecamylamine): significant decrease
bladder compliance ([4]; relative to baseline): without producing detrimental changes
micturition pressure ([4]; relative to baseline): without producing detrimental changes
change in bladder capacity [4]: statistically significant increase
change in micturition interval / ICI [4]: statistically significant increase
change in micturition volume [4]: statistically significant increase
change in bladder capacity ([4]; listed as dexmecamylamine): statistically significant (Student paired-t test) increases
change in micturition interval / ICI ([4]; listed as dexmecamylamine): statistically significant (Student paired-t test) increases
change in micturition volume ([4]; listed as dexmecamylamine): statistically significant (Student paired-t test) increases
micturition interval ([4]; Last 1H (from 2 h after dosing), baseline First 1H 6.44 ± 1.24, FIG. 25 gives minutes): 9.44 ± 1.87
RV (Bcap-MV) ([4]; Last 1H, baseline First 1H 0.06 ± 0.02): 0.09 ± 0.04
B compliance ([4]; Last 1H, baseline First 1H 0.11 ± 0.03): 0.13 ± 0.03
Bcap ([4]; Last 1H, baseline First 1H 1.04 ± 0.24): 1.58 ± 0.31
SA (IMP-BP) ([4]; Last 1H, baseline First 1H 6.55 ± 2.01): 6.99 ± 2.57
BP (baseline) ([4]; Last 1H, baseline First 1H 10.39 ± 1.96): 8.60 ± 1.10
IMP ([4]; Last 1H, baseline First 1H 16.94 ± 3.94): 15.6 ± 2.91
TP ([4]; Last 1H, baseline First 1H 23.27 ± 3.82): 23.3 ± 2.0
